Measured values: paper PMC4468202, “Improved Visualization and Specific Binding for Metabotropic Glutamate Receptor Subtype 1 (mGluR1) Using [^11C]ITMM with Ultra-High Specific Activity in Small-Animal PET” (PLoS ONE, 2015)

Key:
[1] = Metabolite analysis: fraction of unchanged [^11C]ITMM in the plasma; format: in vivo, rat; settings: for unchanged [^11C]ITMM in the plasma: the two SAs
Description: (§1) A bolus (0.5 mL) of [^11C]ITMM with conventional or ultra-high SA was injected for 10 s via a catheter inserted in the tail vein. Dynamic emission scans in three-dimensional list mode were performed for 90 min (10 s x 12 frames, 20 s x 3 frames, 30 s x 3 frames, 60 s x 3 frames, 150 s x 3 frames, and 300 s x 15 frames). For counting radioactivity, blood samples were manually acquired at intervals of 10 s (0.05 mL for 50 s), 1-min intervals (0.05 mL for 5 min), and then at 10 (0.05 mL), 15 (0.2 mL), 30 (0.3 mL), 60 (0.4 mL), and 90 min (0.5 mL) after the PET scan started. For metabolite analysis, six samples of blood were obtained at 1 (0.02 mL), 5 (0.02 mL), 15 (0.05 mL), 30 (0.1 mL), 60 (0.2 mL), and 90 min (0.3 mL) after the injection. Blood samples were centrifuged at 13,000g at 4°C to separate the plasma. Levels of radioactivity in the whole blood and plasma were counted using a 1480 Wizard auto-gamma scintillation counter (Perkin-Elmer, Waltham, MA, USA). The radioactivity was corrected for decay.
Metabolite analysis was performed as described previously. Briefly, whole blood samples were treated to separate the plasma, which was deproteinized with an equivalent amount of acetonitrile. An aliquot of the supernatant obtained from the plasma was analyzed by HPLC with a radiation detector [23]. Plasma protein binding was not determined in the present study. The time curves for the fraction of unchanged [^11C]ITMM in the plasma were fitted using three exponential equations, and subsequently used for kinetic analysis.

mGluR1 [2] = target: T1, mGluR1 (Rattus norvegicus, UniProt P23385); set-up: from tissue; host or cells: cerebellum homogenate; method as in PMID 22316010; settings: affinity for mGluR1; cited from earlier work
T1 sequence (P23385 19-1199): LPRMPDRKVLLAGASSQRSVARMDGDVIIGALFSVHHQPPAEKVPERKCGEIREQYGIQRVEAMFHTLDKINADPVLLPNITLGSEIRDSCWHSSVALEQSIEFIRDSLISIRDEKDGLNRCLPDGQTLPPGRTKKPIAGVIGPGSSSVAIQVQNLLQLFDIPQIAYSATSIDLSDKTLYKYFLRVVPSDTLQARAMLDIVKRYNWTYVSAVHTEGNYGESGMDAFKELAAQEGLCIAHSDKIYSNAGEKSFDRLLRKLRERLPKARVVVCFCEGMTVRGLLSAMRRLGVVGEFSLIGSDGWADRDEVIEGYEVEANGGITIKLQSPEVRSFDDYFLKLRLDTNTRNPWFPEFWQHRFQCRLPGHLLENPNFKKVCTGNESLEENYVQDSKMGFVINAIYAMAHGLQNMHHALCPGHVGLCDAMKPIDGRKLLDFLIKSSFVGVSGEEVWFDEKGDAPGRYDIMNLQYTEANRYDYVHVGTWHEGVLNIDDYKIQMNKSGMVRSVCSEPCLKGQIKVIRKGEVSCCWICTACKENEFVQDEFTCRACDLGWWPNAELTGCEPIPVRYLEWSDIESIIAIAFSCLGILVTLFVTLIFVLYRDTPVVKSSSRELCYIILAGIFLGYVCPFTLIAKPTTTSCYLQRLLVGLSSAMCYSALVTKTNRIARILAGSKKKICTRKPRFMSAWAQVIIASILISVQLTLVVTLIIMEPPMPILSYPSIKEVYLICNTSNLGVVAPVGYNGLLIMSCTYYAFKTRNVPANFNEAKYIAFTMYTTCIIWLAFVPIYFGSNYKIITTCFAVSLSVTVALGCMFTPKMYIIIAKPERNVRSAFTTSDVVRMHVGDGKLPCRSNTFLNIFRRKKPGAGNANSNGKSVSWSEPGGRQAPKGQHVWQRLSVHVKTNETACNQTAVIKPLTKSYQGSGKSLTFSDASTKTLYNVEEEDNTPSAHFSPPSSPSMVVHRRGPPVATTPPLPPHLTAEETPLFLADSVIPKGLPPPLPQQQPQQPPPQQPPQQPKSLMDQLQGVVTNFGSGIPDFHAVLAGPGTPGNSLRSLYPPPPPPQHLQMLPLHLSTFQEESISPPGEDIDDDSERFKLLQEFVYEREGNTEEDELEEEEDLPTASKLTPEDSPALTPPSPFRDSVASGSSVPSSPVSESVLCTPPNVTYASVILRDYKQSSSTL

mGluR1 [3] = target: T1, mGluR1; test: Estimation of equilibrium state from tissue-to-plasma concentration ratios C t'(t)/C P'(t); format: in vivo; set-up: from tissue; host or cells: living SD rat brain (in vivo PET)
Description: Estimations of the equilibrium state of [^11C]ITMM in each brain region were obtained using averaged plasma input functions and averaged tissue TACs. Theoretical radioactive concentrations in each brain region (C t ’) and the plasma input function of [^11C]ITMM (C P ’) were estimated using averaged measurements extracted between 5 and 90 min after the injection and subjected to three exponential least square fitting [Radioactivity (t) = A*exp(-at) + B*exp(-bt) + C*exp(-ct)].
The estimations over 90 min after the injection were calculated by extrapolating based on the equation as described above. […]

mGluR1 [4] = target: T1, mGluR1; test: Small-animal PET with [^11C]ITMM: time-activity curves, radioactive uptake (SUV) in brain regions; format: in vivo; set-up: from tissue; host or cells: living SD rat brain (in vivo PET)
Description: Subsequently, a SD rat was secured in a custom-designed chamber and placed in a small-animal PET scanner (Inveon, Siemens Medical Solutions, Knoxville, TN, USA). Body temperature was maintained using a 40°C water circulation system (T/Pump TP401, Gaymar Industries, Orchard Park, NY, USA). A 24-gauge intravenous catheter (Terumo Medical Products, Tokyo, Japan) was placed in the tail vein of the rat for a bolus injection.
as §1
PET dynamic images were reconstructed with filtered back projection using a Hunning filter with a Nyquist cut-off of 0.5 cycle/pixel. PET/MRI fused images were acquired by PMOD version 3.4 (PMOD Technologies, Zurich, Switzerland). To generate the time-activity curves (TACs) of specified brain regions, volumes of interest (VOIs) were drawn encompassing the cerebellum, hippocampus, thalamus, striatum, cingulate cortex, substantia nigra, and pons. The radioactivity was decay-corrected to the injection time and is expressed as the standardized uptake value (SUV), which was normalized to the injected radioactivity and body weight. SUV was calculated according to the following formula: SUV = (radioactivity per milliliter tissue / injected radioactivity) × gram body weight.

[5] = cingulate cortex, conventional SA
[6] = cingulate cortex, ultra-high SA
[7] = substantia nigra, conventional SA
[8] = substantia nigra, ultra-high SA

Structure (SMILES): CC(C)Nc1cc(-c2csc(N(C)C(=O)c3ccc(O[11CH3])cc3)n2)ncn1 [[^11C]ITMM, N-[4-[6-(isopropylamino)pyrimidin-4-yl]-1,3-thiazol-2-yl]-4-[^11C]methoxy-N-methyl-benzamide]
- Unchanged form in the plasma ([1]; 1 min after injection, conventional SA): 95.2 ± 1.2%
- Unchanged form in the plasma ([1]; 1 min after injection, ultra-high SA): 97.3 ± 0.6%
- Unchanged form in the plasma ([1]; 5 min after injection, conventional SA): 74.0 ± 2.1%
- Unchanged form in the plasma ([1]; 5 min after injection, ultra-high SA): 77.1 ± 3.2%
- Unchanged form in the plasma ([1]; 15 min after injection, conventional SA): 53.7 ± 2.6%
- unchanged [^11C]ITMM in the plasma ([1]; 15 min after injection): roughly 55%
- Unchanged form in the plasma ([1]; 15 min after injection, ultra-high SA): 56.2 ± 4.0%
- Unchanged form in the plasma ([1]; 30 min after injection, conventional SA): 36.8 ± 2.6%
- Unchanged form in the plasma ([1]; 30 min after injection, ultra-high SA): 40.0 ± 4.0%
- Unchanged form in the plasma ([1]; 60 min after injection, conventional SA): 21.7 ± 2.0%
- Unchanged form in the plasma ([1]; 60 min after injection, ultra-high SA): 24.7 ± 2.9%
- Unchanged form in the plasma ([1]; 90 min after injection, conventional SA): 15.7 ± 1.3%
- unchanged [^11C]ITMM in the plasma ([1]; 90 min after injection): roughly 15%
- Unchanged form in the plasma ([1]; 90 min after injection, ultra-high SA): 18.2 ± 2.5%
- Ki (mGluR1 [2]): 0.0126 µM
- bindings reached, of the equilibrium state (mGluR1 [3]; both SA conditions, all brain regions, 90 min PET): 80–98%
- equilibrium times (mGluR1 [3]; both SA conditions, all brain regions, after the injection): 100 to 150 min
- estimated equilibrium time (mGluR1 [3]; cerebellum, conventional SA): 150 min
- uptake of radioactivity reached, of equilibrium state (mGluR1 [3]; cerebellum, conventional SA, 90 min PET): 80%
- estimated equilibrium time (mGluR1 [3]; cerebellum, ultra-high SA): 150 min
- uptake of radioactivity reached, of equilibrium state (mGluR1 [3]; cerebellum, ultra-high SA, 90 min PET): 82%
- estimated equilibrium time (mGluR1 [3]; [5]): 100 min
- uptake of radioactivity reached, of equilibrium state (mGluR1 [3]; cingulate cortex, conventional SA, 90 min PET): 96%
- estimated equilibrium time (mGluR1 [3]; [6]): 120 min
- uptake of radioactivity reached, of equilibrium state (mGluR1 [3]; cingulate cortex, ultra-high SA, 90 min PET): 91%
- estimated equilibrium time (mGluR1 [3]; hippocampus, conventional SA): 120 min
- uptake of radioactivity reached, of equilibrium state (mGluR1 [3]; hippocampus, conventional SA, 90 min PET): 93%
- estimated equilibrium time (mGluR1 [3]; hippocampus, ultra-high SA): 130 min
- uptake of radioactivity reached, of equilibrium state (mGluR1 [3]; hippocampus, ultra-high SA, 90 min PET): 89%
- estimated equilibrium time (mGluR1 [3]; pons, conventional SA): 110 min
- uptake of radioactivity reached, of equilibrium state (mGluR1 [3]; pons, conventional SA, 90 min PET): 94%
- estimated equilibrium time (mGluR1 [3]; pons, ultra-high SA): 100 min
- uptake of radioactivity reached, of equilibrium state (mGluR1 [3]; pons, ultra-high SA, 90 min PET): 98%
- estimated equilibrium time (mGluR1 [3]; striatum, conventional SA): 120 min
- uptake of radioactivity reached, of equilibrium state (mGluR1 [3]; striatum, conventional SA, 90 min PET): 93%
- estimated equilibrium time (mGluR1 [3]; striatum, ultra-high SA): 130 min
- uptake of radioactivity reached, of equilibrium state (mGluR1 [3]; striatum, ultra-high SA, 90 min PET): 90%
- estimated equilibrium time (mGluR1 [3]; [7]): 110 min
- uptake of radioactivity reached, of equilibrium state (mGluR1 [3]; substantia nigra, conventional SA, 90 min PET): 94%
- estimated equilibrium time (mGluR1 [3]; [8]): 100 min
- uptake of radioactivity reached, of equilibrium state (mGluR1 [3]; substantia nigra, ultra-high SA, 90 min PET): 98%
- estimated equilibrium time (mGluR1 [3]; thalamus, conventional SA): 120 min
- uptake of radioactivity reached, of equilibrium state (mGluR1 [3]; thalamus, conventional SA, 90 min PET): 91%
- estimated equilibrium time (mGluR1 [3]; thalamus, ultra-high SA): 140 min
- uptake of radioactivity reached, of equilibrium state (mGluR1 [3]; thalamus, ultra-high SA, 90 min PET): 87%
- AUC (mGluR1 [4]; cerebellum, conventional SA): 243.2 ± 9.2 SUV · min
- maximum uptake (mGluR1 [4]; cerebellum, conventional SA): 3.0 SUV
- AUC (mGluR1 [4]; cerebellum, ultra-high SA): 269.9 ± 15.8 SUV · min
- maximum uptake (mGluR1 [4]; cerebellum, ultra-high SA): 3.4 SUV
- AUC (mGluR1 [4]; [5]): 156.9 ± 5.3 SUV · min
- maximum uptake (mGluR1 [4]; [5]): 2.0 SUV
- AUC (mGluR1 [4]; [6]): 184.7 ± 11.1 SUV · min
- maximum uptake (mGluR1 [4]; [6]): 2.3 SUV
- AUC (mGluR1 [4]; hippocampus, conventional SA): 160.8 ± 4.6 SUV · min
- maximum uptake (mGluR1 [4]; hippocampus, conventional SA): 2.0 SUV
- AUC (mGluR1 [4]; hippocampus, ultra-high SA): 180.2 ± 10.9 SUV · min
- maximum uptake (mGluR1 [4]; hippocampus, ultra-high SA): 2.2 SUV
- AUC (mGluR1 [4]; pons, conventional SA): 56.0 ± 1.6 SUV · min
- maximum uptake (mGluR1 [4]; pons, conventional SA): 0.9 SUV
- AUC (mGluR1 [4]; pons, ultra-high SA): 62.7 ± 3.6 SUV · min
- maximum uptake (mGluR1 [4]; pons, ultra-high SA): 0.9 SUV
- AUC (mGluR1 [4]; striatum, conventional SA): 169.7 ± 6.0 SUV · min
- maximum uptake (mGluR1 [4]; striatum, conventional SA): 2.1 SUV
- AUC (mGluR1 [4]; striatum, ultra-high SA): 197.3 ± 11.1 SUV · min
- maximum uptake (mGluR1 [4]; striatum, ultra-high SA): 2.4 SUV
- AUC (mGluR1 [4]; [7]): 149.9 ± 6.7 SUV · min
- maximum uptake (mGluR1 [4]; [7]): 1.8 SUV
- AUC (mGluR1 [4]; [8]): 178.9 ± 10.8 SUV · min
- maximum uptake (mGluR1 [4]; [8]): 2.2 SUV
- AUC (mGluR1 [4]; thalamus, conventional SA): 188.4 ± 6.9 SUV · min
- maximum uptake (mGluR1 [4]; thalamus, conventional SA): 2.3 SUV
- AUC (mGluR1 [4]; thalamus, ultra-high SA): 214.2 ± 12.2 SUV · min
- maximum uptake (mGluR1 [4]; thalamus, ultra-high SA): 2.6 SUV
- delay of peak time of radioactivity (mGluR1 [4]; ultra-high SA compared with conventional SA, brain regions): 4 to 10 min
